The values below come from patent publication US20160264616A1, “THERAPEUTIC COMPOUNDS AND METHODS” (priority 2015, published 2016).

Entries after “also recorded” stand apart in the source; their conditions may differ. Like-named read-outs stand apart in the source and are kept apart here.

One assay concerns the target T1, Gαo (Homo sapiens, UniProt P09471).
T1 construct: 6xHis; made in house; host or cells: BL21 (DE3) E. coli (printed 'B1-21 (DE3)')
Put plainly: Differential scanning fluorimetry (DSF) with Gαo. As to conditions: 50 μM compound. The assay is classed as binding. How it is done:
Further evaluation of the compounds designated UI-5, UI-1590, UI-1907 and UI-1956 was conducted using Differential Scanning Fluorimetry (DSF). This method allows for the rapid measurement of protein stability based on the melting temperature (Tm) of the target protein that is bound by ligand. A shift of Tm indicates a change in protein stability to melting due to stabilization added by the small molecule binding to the target protein. The four compounds were incubated at 50 μM with RGS17 or Gαo in the presence of Sypro Orange. In aqueous solution the fluorescence emission from the dye is very weak. […] The hydrophobic parts of a native, fully folded, protein in solution are generally buried within the protein and therefore not accessible to the dye resulting in little fluorescence emission. When the protein unfolds the dye molecules can bind to the exposed hydrophobic regions of the proteins, resulting in increased fluorescence. […]
Differential scanning fluorimetry experiments were carried out using white 384-well μltraAMP PCR plates (Sorenson BioSciences; Salt Lake City, Utah). […] All data was collected using the Roche LightCycler data acquisition ability and analyzed with Graphpad Prism 6.0, using first and second derivatives of the fluorescent melting curves.
(In general: DSF heats the sample and reads unfolding from a dye or from intrinsic fluorescence.)

Assay [1] addresses T2, RGS17-accelerated Gαo GTPase activity (Homo sapiens, UniProt Q9UGC6).
T2 construct: This is the same RGS17 construct used in the high throughput screening campaign that is fully active despite the N-terminal truncation; made in house
T2 sequence (Q9UGC6 72-206 limits assumed): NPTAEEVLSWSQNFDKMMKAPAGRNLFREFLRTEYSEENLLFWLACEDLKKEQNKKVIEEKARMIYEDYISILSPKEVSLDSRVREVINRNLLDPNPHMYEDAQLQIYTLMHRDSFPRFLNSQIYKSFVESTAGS
Put plainly: Malachite green steady-state GTPase assay (RGS17 GAP activity). The format is biochemical. How it is done:
Next, the ability of the compounds to inhibit the “GAP” activity of RGS17 was examined. The compounds were tested using a previously described malachite green assay (18), which allows for the detection of free phosphate liberated during the enzymatic cleavage of GTP to GDP by G alpha subunits.
First, stock solutions of each of the 3 components of the developing solution were prepared according to Monroy et al (18). In brief, Compounds were seeded using a half-log dilution with the highest final concentration of compound at 100 μM down to 1 nM. […] A 4×GTP at 1.2 mM diluted in MGB, was used, with a final concentration of 300 μM. To terminate the reaction, 10 μL of a Developing Solution (DS) was 50:12.5:1 (malachite:molybdate:Tween-20) was added to each well using a Microlab Star liquid handling robot (Hamilton Robotics; Reno, Nev.), this achieved a final ratio 4:1 (sample:developing solution) absorbance was read at 642 nm.

The test system of assay [2] is RGS17FL:Gαo interaction in HEK293T cells. As to the kind of experiment: RGS localization assay, GFP-RGS17FL co-transfected with human Gαo in HEK293T cells. The following applies: 100 μM, 0-10 min. The assay is classed as cell-based. How it is done: HEK293T cells co-transfected with GFP-RGS17FL and human Gαo were treated with UI-5, UI-1590 and […] to determine if the compounds could disrupt the RGS17:Gαo interaction that could drive RGS17 to the membrane. […] To test this hypothesis, we constructed a GFP-RGS17 fusion protein with an N-terminal truncation, removing the cysteine-rich motif. […] As a negative control, we tested a known RGS4 inhibitor (CCG-50014) in this assay against RGS17ΔN (21). […] Finally, to ensure the localization was not due to the GFP tag, pAcGFP vector was co-transfected into HEK293T cells with hGαo. […] Cross-sectional fluorescence intensity analysis was used to quantify the intensity of signal at a cross section of the cell. Average signal at the membrane and in the cytoplasm were calculated and change in signal intensity was assessed between time zero and time final. […] Additionally, the control condition of CCG-50014 was subject to the same analyses as the lead compound.
Twenty four (24) hours prior to plating, assay plates were coated with 30 μl poly-D-lysine per well. Human Embryonic Kidney 293T cells (HEK293T) were plated in to 96 well tissue culture treated glass bottom view plates (Perkin Elmer, Part No. 6005430) at a density of 25K cells per well. […] Images were analyzed using NIH Image J software and Graphpad Prism 6. […]

Where [3] appears, read: malachite green, n=3, read-out: IC50 for inhibition of RGS17 GAP activity.

T1 sequence (P09471 whole entry): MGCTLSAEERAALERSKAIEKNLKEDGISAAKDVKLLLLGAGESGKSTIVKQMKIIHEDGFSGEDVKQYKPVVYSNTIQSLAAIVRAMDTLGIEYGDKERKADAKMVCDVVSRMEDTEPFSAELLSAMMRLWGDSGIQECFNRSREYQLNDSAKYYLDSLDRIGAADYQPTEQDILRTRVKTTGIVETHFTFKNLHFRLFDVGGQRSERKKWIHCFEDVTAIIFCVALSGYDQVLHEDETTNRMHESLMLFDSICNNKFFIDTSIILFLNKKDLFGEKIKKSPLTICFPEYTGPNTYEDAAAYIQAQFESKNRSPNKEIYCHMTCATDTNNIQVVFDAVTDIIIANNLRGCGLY

For `CC(C)=CCC[C@]1(C)C=Cc2c(O)c3c(c(CC=C(C)C)c2O1)O[C@]12C(=C[C@@H]4C[C@H]1C(C)(C)O[C@@]2(C/C=C(/C)C(=O)O)C4=O)C3=O` [UI-1907], the “effect on Gαo thermal stability (DSF)” value on Gαo was “decrease the thermal stability of the Gαo subunit”.

The IC50 is the concentration that inhibits the measured activity by half. Take `O=c1c(-c2cc(O)c(O)c(O)c2)coc2cc(O)c(O)c(O)c12` [UI-1956, 5,6,7-trihydroxy-3-(3,4,5-trihydroxyphenyl)-4H-chromen-4-one]: the IC50 in assay [1] (setting [3]) is 35 µM.

For the compound `CC1=C(O)C(=O)C=C2C1=CC=C1[C@@]2(C)CC[C@@]2(C)[C@@H]3C[C@](C)(C(=O)O)CC[C@]3(C)CC[C@]12C` [UI-1590], the figures for the IC50 in assay [1] and in assay [1] (setting [3]) were 6 µM and 6.36 µM, respectively.

With `C[n+]1cc2c3c(ccc2c2ccc4cc5c(cc4c21)OCO5)OCO3` [UI-5], in assay [1] (setting [3]), the IC50 is 12 µM. For the same compound, the “delocalization of full length RGS17FL” value in assay [2] was “remained at the membrane; also recorded: does not diffuse back in to the cytoplasm”.
